Test results taken from PubChem BioAssay AID2060512 (Molecular Pharmacology Branch, DTP, NCI, 2025).
pIC50: −log10 of the molar value.

System: 186277-243-T-J2-PDC complex spheroid viability
Test: Anticancer human tumor 186277-243-T-J2-PDC patient-derived colon adenocarcinoma cell line growth inhibition [GQUAD]
Details: for pIC50: curve of first compound; for viability, T/C: stronger effect = lower value
Summary of the method: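 Tumor cells were grown as complex spheroids with HUVEC endothelial cells and mesenchymal stem cells as stroma. G-quadruplex stabilizers were combined with targeted agents over half-log dilutions from near the clinical Cmax, or from 10 microM.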

[1] = second compound 0.0316 µM, first compound 0.0316 µM
[2] = second compound 0.0316 µM, first compound 0.316 µM
[3] = second compound 0.1 µM, first compound 0.0316 µM
[4] = second compound 0.1 µM, first compound 0.316 µM
[5] = second compound 0.316 µM, first compound 0.0316 µM
[6] = second compound 0.316 µM, first compound 0.316 µM
[7] = second compound 1 µM, first compound 0.0316 µM
[8] = second compound 1 µM, first compound 0.316 µM
[9] = second compound 3.16 µM, first compound 0.0316 µM
[10] = second compound 3.16 µM, first compound 0.316 µM
[11] = second compound 10 µM, first compound 0.0316 µM
[12] = second compound 10 µM, first compound 0.316 µM
[13] = second compound 0.0316 µM, first compound 0.1 µM
[14] = second compound 0.0316 µM, first compound 1 µM
[15] = second compound 0.0316 µM, first compound 3.16 µM
[16] = second compound 0.0316 µM, first compound 10 µM
[17] = second compound 0.1 µM, first compound 0.1 µM
[18] = second compound 0.1 µM, first compound 1 µM
[19] = second compound 0.1 µM, first compound 3.16 µM
[20] = second compound 0.1 µM, first compound 10 µM
[21] = second compound 0.316 µM, first compound 0.1 µM
[22] = second compound 0.316 µM, first compound 1 µM
[23] = second compound 0.316 µM, first compound 3.16 µM
[24] = second compound 0.316 µM, first compound 10 µM
[25] = second compound 1 µM, first compound 0.1 µM
[26] = second compound 1 µM, first compound 1 µM
[27] = second compound 1 µM, first compound 3.16 µM
[28] = second compound 1 µM, first compound 10 µM
[29] = second compound 3.16 µM, first compound 0.1 µM
[30] = second compound 3.16 µM, first compound 1 µM
[31] = second compound 3.16 µM, first compound 3.16 µM
[32] = second compound 3.16 µM, first compound 10 µM
[33] = second compound 10 µM, first compound 0.1 µM
[34] = second compound 10 µM, first compound 1 µM
[35] = second compound 10 µM, first compound 3.16 µM
[36] = second compound 10 µM, first compound 10 µM
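Also: spheroids exposed to drugs for 7 days.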
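For viability, T/C in this document: 100% = DMSO vehicle control viability.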

Compound Cn1ncnc1[C@H]1c2n[nH]c(=O)c3cc(F)cc(c23)N[C@@H]1c1ccc(F)cc1 + CN(C)c1ccc(Nc2c3ccc(NC(=O)CCN4CCCC4)cc3nc3cc(NC(=O)CCN4CCCC4)ccc23)cc1 has a pIC50 (second compound 0.0316 µM) of under 6.50, a pIC50 (second compound 0.1 µM) of under 6.50 and a pIC50 (second compound 0.316 µM) of under 6.50. For the same compound, the pIC50 (second compound 1 µM) was under 6.50, the pIC50 (second compound 3.16 µM) was under 6.50 and the pIC50 (second compound 10 µM) was under 6.50. For the same compound, the viability, T/C (second compound 0.0316 µM, first compound 0.000999 µM) was 91.8%, the viability, T/C (second compound 0.0316 µM, first compound 0.00316 µM) was 104% and the viability, T/C (second compound 0.0316 µM, first compound 0.00999 µM) was 108%. It also gave a viability, T/C [1] of 80.6%, a viability, T/C (second compound 0.0316 µM, first compound 0.0999 µM) of 86.6% and a viability, T/C [2] of 76.8%. For the same compound, the viability, T/C (second compound 0.1 µM, first compound 0.000999 µM) was 108%, the viability, T/C (second compound 0.1 µM, first compound 0.00316 µM) was 113% and the viability, T/C (second compound 0.1 µM, first compound 0.00999 µM) was 96.2%. The viability, T/C [3] was 114%, the viability, T/C (second compound 0.1 µM, first compound 0.0999 µM) was 90.2% and the viability, T/C [4] was 82%. It also gave a viability, T/C (second compound 0.316 µM, first compound 0.000999 µM) of 83.8%, a viability, T/C (second compound 0.316 µM, first compound 0.00316 µM) of 108% and a viability, T/C (second compound 0.316 µM, first compound 0.00999 µM) of 102%. For the same compound, the viability, T/C [5] was 115%, the viability, T/C (second compound 0.316 µM, first compound 0.0999 µM) was 92.1% and the viability, T/C [6] was 86.8%. It also gave a viability, T/C (second compound 1 µM, first compound 0.000999 µM) of 105%, a viability, T/C (second compound 1 µM, first compound 0.00316 µM) of 91.8% and a viability, T/C (second compound 1 µM, first compound 0.00999 µM) of 97.6%. It also gave a viability, T/C [7] of 106%, a viability, T/C (second compound 1 µM, first compound 0.0999 µM) of 85.6% and a viability, T/C [8] of 85%. It also gave a viability, T/C (second compound 3.16 µM, first compound 0.000999 µM) of 101%, a viability, T/C (second compound 3.16 µM, first compound 0.00316 µM) of 94.7% and a viability, T/C (second compound 3.16 µM, first compound 0.00999 µM) of 107%. It also gave a viability, T/C [9] of 94%, a viability, T/C (second compound 3.16 µM, first compound 0.0999 µM) of 85.5% and a viability, T/C [10] of 94.6%. It also gave a viability, T/C (second compound 10 µM, first compound 0.000999 µM) of 114%, a viability, T/C (second compound 10 µM, first compound 0.00316 µM) of 92.3% and a viability, T/C (second compound 10 µM, first compound 0.00999 µM) of 99.2%. The viability, T/C [11] was 106%, the viability, T/C (second compound 10 µM, first compound 0.0999 µM) was 83.6% and the viability, T/C [12] was 82%.
With CC(C)(O)C1CCC(Nc2ccc3ncc(-c4cccc(C(F)(F)F)c4)n3n2)CC1 (stereo unspecified) + Cc1cnc(CNC(=O)c2c(=O)c3ccc(N4CCCN(C)CC4)nc3n3c2sc2ccccc23)cn1 the pIC50 (second compound 0.0316 µM) was 5.61, the pIC50 (second compound 0.1 µM) was 5.78 and the pIC50 (second compound 0.316 µM) was 5.92. It also gave a pIC50 (second compound 1 µM) of over 7.50, a pIC50 (second compound 3.16 µM) of over 7.50 and a pIC50 (second compound 10 µM) of over 7.50. For the same compound, the viability, T/C [1] was 88.7%, the viability, T/C [13] was 85.8% and the viability, T/C [2] was 94.4%. It also gave a viability, T/C [14] of 75.5%, a viability, T/C [15] of 43% and a viability, T/C [16] of 37.2%. For the same compound, the viability, T/C [3] was 81.3%, the viability, T/C [17] was 78.1% and the viability, T/C [4] was 77%. The viability, T/C [18] was 59.6%, the viability, T/C [19] was 37.9% and the viability, T/C [20] was 34.3%. The viability, T/C [5] was 55.5%, the viability, T/C [21] was 49.5% and the viability, T/C [6] was 66.8%. It also gave a viability, T/C [22] of 54.2%, a viability, T/C [23] of 25.2% and a viability, T/C [24] of 20.9%. It also gave a viability, T/C [7] of 48.5%, a viability, T/C [25] of 48.2% and a viability, T/C [8] of 46.3%. For the same compound, the viability, T/C [26] was 43.2%, the viability, T/C [27] was 24.2% and the viability, T/C [28] was 22.1%. The viability, T/C [9] was 34.5%, the viability, T/C [29] was 42.2% and the viability, T/C [10] was 38.7%. The viability, T/C [30] was 35.3%, the viability, T/C [31] was 3.82% and the viability, T/C [32] was 0.12%. For the same compound, the viability, T/C [11] was 37.5%, the viability, T/C [33] was 43.4% and the viability, T/C [12] was 37.1%. The viability, T/C [34] was 39.7%, the viability, T/C [35] was 0.2% and the viability, T/C [36] was 0.2%.
Work on O=c1[nH]cc(F)c(=O)[nH]1 + Cc1[nH]c2ccc(F)cc2c1-c1nc2c3cccnc3c3ncccc3c2[nH]1 yielded a pIC50 (second compound 0.0316 µM) of under 5.00, a pIC50 (second compound 0.1 µM) of under 5.00 and a pIC50 (second compound 0.316 µM) of 5.07. It also gave a pIC50 (second compound 1 µM) of under 5.00, a pIC50 (second compound 3.16 µM) of 5.11 and a pIC50 (second compound 10 µM) of 5.18. It also gave a viability, T/C [1] of 107%, a viability, T/C [13] of 99.2% and a viability, T/C [2] of 110%. The viability, T/C [14] was 106%, the viability, T/C [15] was 67.7% and the viability, T/C [16] was 51.4%. The viability, T/C [3] was 94.7%, the viability, T/C [17] was 86.5% and the viability, T/C [4] was 110%. The viability, T/C [18] was 109%, the viability, T/C [19] was 80.9% and the viability, T/C [20] was 51.7%. The viability, T/C [5] was 84.9%, the viability, T/C [21] was 101% and the viability, T/C [6] was 106%. For the same compound, the viability, T/C [22] was 124%, the viability, T/C [23] was 80.7% and the viability, T/C [24] was 45.1%. The viability, T/C [7] was 98.2%, the viability, T/C [25] was 93.7% and the viability, T/C [8] was 93.5%. The viability, T/C [26] was 87.7%, the viability, T/C [27] was 80.7% and the viability, T/C [28] was 51.4%. The viability, T/C [9] was 97.9%, the viability, T/C [29] was 94% and the viability, T/C [10] was 110%. For the same compound, the viability, T/C [30] was 99.4%, the viability, T/C [31] was 68.6% and the viability, T/C [32] was 44.6%. The viability, T/C [11] was 106%, the viability, T/C [33] was 108% and the viability, T/C [12] was 110%. It also gave a viability, T/C [34] of 116%, a viability, T/C [35] of 69.3% and a viability, T/C [36] of 39.5%.
